Here are results for eleven compounds from US20160168195A1, “OLIGOPEPTIDES AND PROCESS FOR PREPARATION THEREOF” (Council of Scientific & Industrial Research, priority 2011, published 2016).

In data set [1] the test system is solid tumors and soft tissue sarcomas. Conditions: cited from earlier work.
The test system of data set [2] is human cervical cancer cell line (HeLa). As to the kind of experiment: Determination of IC50 in cancer cell lines (cell counting, trypan blue), HeLa. It counts as cell-based. Conditions: 24 h with compound (1-40 nM), inhibition of cell proliferation, read-out: IC50 against He La cells. Here is the method: (§1) Then the medium was replaced with fresh medium containing vehicle (0.1% DMSO) or different concentrations of compounds (1-40 nM) and the cells were grown for an additional 24 h. Both attached and floating cells were harvested and counted after staining with trypan blue (Rathinasamy et al, BMC Cancer 2010; 10:213). Percentage inhibition of cell proliferation was plotted against compound concentration using Origin Pro 7.5 software (Table 2).

For data set [3] the following is noted: in vivo; cited from earlier work.
A further data set deals with MDA-MB-231 cells. As to the kind of experiment: Determination of IC50 in cancer cell lines (cell counting, trypan blue), MDA-MB-231. It counts as cell-based, human. Conditions: MDA-MB-231 (highly metastatic breast cancer). The procedure:
as §1

In a further data set the test system is MCF-7 cells. As to the kind of experiment: Determination of IC50 in cancer cell lines (cell counting, trypan blue), MCF-7. It counts as cell-based, human. Conditions: MCF-7 (breast cancer). Here is the method:
as §1

Data set [4] concerns HeLa cells. As to the kind of experiment: Apoptosis by annexin V and propidium iodide staining. Conditions: HeLa, 7, 15, 30 nM, 24 h. It counts as cell-based, human. The procedure: (§2) After 40 h of incubation, cells were trypsinized and collected by centrifugation. After washing pellet twice in PBS, the cells were lysed in buffer (50 mM Tris pH 8.0, 10 mM EDTA, 0.5% sarcosine, and 0.5 mg/mL proteinase K), and incubated at 50° C. for 1 h in the heating block. RNase A (1 mg/mL) was added and incubation was further extended for 1 h. The samples were allowed to come to 25° C. Gel electrophoresis was done using 2% agarose and the fragmented genomic DNA visualized after staining with ethidium bromide using UV gel documentation system (FIG. 2) (Rathinasamy et al, FEBS J 2006; 273:4114). HeLa cells were incubated with different concentrations of compound 5 (7, 15 and 30 nM) for 24 h. Cells were stained with annexin V and propidium iodide. The number of cells undergoing apoptosis was estimated by counting the annexin V and propidium iodide positive cells (FIG. 13).

Data set [5] deals with HeLa cells. As to the kind of experiment: Apoptosis detection by DNA fragmentation assay. The following applies: HeLa, 7, 15, 30 nM, 40 h. In kind it is cell-based, human. The procedure: as §2
A further data set concerns Goat brain tubulin. As to the kind of experiment: Microtubule polymerization assay (light scattering). It counts as biochemical. Conditions: tubulin 10 μM, 30 min, compared with compounds 1, 2, 3. Here is the method: Microtubule polymerization assay: Goat brain tubulin (10 μM) was incubated without or with different compounds 1, 2, 3 and compound 5 (5 μM) in microtubule assembly buffer (1 M monosodium glutamate, 3 mM MgCl2, 1 mM EGTA and 25 mM PIPES pH 6.8) on ice for 20 minutes. Then, GTP (1 mM) was added to the reaction mixture. The assembly of tubulin was monitored at 37° C. using a spectrofluorometer for 30 min. Similar experiment was done with compound 5 (1, 5, 7 and 10 μM). MAPs-rich tubulin (1 mg/mL) was incubated without or with different concentrations of compound 5 (1, 3, 5 and 10 μM) in PEM buffer (25 mM pipes pH 6.8 containing 3 mM MgCl2 and 1mM EGTA) for 15 min on ice and then, 1 mM GTP was added to the reaction mixture. The effect of D1, D2, D3 and D5 on the assembly kinetics was monitored as described above for purified tubulin (FIG. 3) (Gupta and Panda, Biochemistry 2002; 41:13029) to study depolymerization of microtubules which is a mechanism of anticancer activity.

The test system of data set [6] is microtubules of HeLa cells. As to the kind of experiment: Effect on interphase and mitotic microtubules of HeLa cells (immunostaining). It counts as cell-based, human. Here is the method: Effect of Compound 5 on interphase and mitotic microtubules of HeLa cells: HeLa cells were seeded at a density of 0.6×10^5 cells/mL and were grown as monolayer on glass cover slips. Compounds diluted in Dimethyl sulfoxide (DMSO) (0.1% final concentration) were added to the culture medium 24 h after seeding. Then, the medium was replaced with fresh medium containing vehicle (0.1% DMSO) or different concentrations (7, 15, 30 nM) of compound 5 and the incubation continued for further 24 h. The cells were then fixed with 3.7% formaldehyde at 37° C. for 30 min and immunostained using tubulin antibody (FIGS. 4 and 5) (Mohan R and Panda D, Cancer Res. 2008, 68: 6181). The DNA was stained using Hoechst 33258 dye. The images were visualized by TE Eclipse 2000U fluorescence microscope (Nikon, Tokyo, Japan) and analyzed with Image-Pro Plus software.

For TZT-1027, the “activity in Phase II trials (in words)” value in [1] (Phase II, Patel et al 2006) is “no activity”.

With `CC[C@H](C)C([C@H](O)CC(=O)NCC1O[C@H](C(=O)NCc2ccccc2)[C@@H](OC)[C@@H]1OC)N(C)C(=O)[C@@H](NC(=O)[C@@H](NC)C(C)C)C(C)C` (stereo partly drawn) [Compound 8, Dov(R^1═H)-Val-(3R,4S,5S)-Dil(X═C(OH)H,Y═CH2)-SAA(2S)-Doe(R^2═H, n=0)], in data set [2], the IC50 was 12 nM.

With `CC[C@H](C)C([C@H](CC(=O)NCC1O[C@H](C(=O)N[C@@H](Cc2ccccc2)c2nccs2)[C@@H](OC)[C@@H]1OC)OC)N(C)C(=O)[C@@H](NC(=O)[C@@H](NC)C(C)C)C(C)C` (stereo partly drawn) [Compound 3, Dov(R^1═H)-Val-(3S,4S,5S)-Dil(X═C(OCH3)H,Y═CH2)-SAA(2S)-Doe(R^2=2-(thiazolyl), n=1)], in data set [2], the IC50 was determined as 9.9 nM.

Turning to `CC[C@H](C)C([C@@H](CC(=O)NCC1O[C@@H](C(=O)NCCc2ccccc2)[C@@H](OC)[C@@H]1OC)OC)N(C)C(=O)[C@@H](NC(=O)[C@@H](NC)C(C)C)C(C)C` (stereo partly drawn) [Compound 6, Dov(R^1═H)-Val-(3R,4S,5S)-Dil(X═C(OCH3)H,Y═CH2)-SAA(2R)-Doe(R^2═H, n=1)], the IC50 in [2] worked out at 15 nM.

On to Dolastatin-10, for which, in data set [1] (variety of solid tumors and soft tissue sarcomas, Von Mehren et al 2004), the “responses in phase I and II clinical trials (in words)” value is on record as “did not demonstrate any responses”.

Turning to `CC[C@H](C)C([C@H](CC(=O)NCC1O[C@H](C(=O)N[C@@H](Cc2ccccc2)c2nccs2)[C@@H](OC)[C@@H]1OC)OC)N(C)C(=O)[C@@H](NC(=O)[C@H](C(C)C)N(C)C)C(C)C` (stereo partly drawn) [Compound 4, Dov(R^1=Me)-Val-(3S,4S,5S)-Dil(X═C(OCH3)H,Y═CH2)-SAA(2S)-Doe(R^2=2-(thiazolyl), n=1)], the IC50 in [2] was found to be 16 nM.

`CC[C@H](C)C(/C=C/C(=O)NCC1O[C@@H](C(=O)N[C@@H](Cc2ccccc2)C2=NCCS2)[C@@H](OC)[C@@H]1OC)N(C)C(=O)[C@@H](NC(=O)[C@@H](NC)C(C)C)C(C)C` (stereo partly drawn) [Compound 1, Dov(R^1═H)-Val-(4S,5S)-Dil(X,Y═CH)-SAA(2R)-Doe(R^2=2-(4,5-dihydrothiazolyl), n=1)]: in [2], the concentration for half-maximal inhibition (IC50) was 8.7 nM.

In the case of Dolastatin-15, in data set [3], the “side effects (in words)” value is “severe side effects such as arterial hypertension and myocardial infarction”.

On to `CC[C@H](C)C([C@@H](CC(=O)NCC1O[C@H](C(=O)NCCc2ccccc2)[C@@H](OC)[C@@H]1OC)OC)N(C)C(=O)[C@@H](NC(=O)[C@@H](NC)C(C)C)C(C)C` (stereo partly drawn) [Compound 5, Dov(R^1═H)-Val-(3R,4S,5S)-Dil(X═C(OCH3)H,Y═CH2)-SAA(2S)-Doe(R^2═H, n=1)], for which the half-inhibitory concentration (IC50) is 6.8 nM in data set [2]; 13 ± 5 nM with MDA-MB-231 cells (24 h, read-out: IC50 values for compound 5, MDA-MB-231 cells); 15 ± 7 nM with MCF-7 cells (24 h, read-out: IC50 values for compound 5, MCF-7 cells). For the same compound, the “inhibition of proliferation of MDA-MB-231 cells (in words)” value in the data set with MDA-MB-231 cells is “inhibited proliferation”. Besides, the “inhibition of proliferation of MCF-7 cells (in words)” value in the data set on MCF-7 cells is “inhibited proliferation”. Further, the “induction of apoptosis (Annexin V and PI staining, in words)” value in the data set with HeLa cells [4] was “induced apoptosis”. Further, the “genomic DNA fragmentation (in words)” value with HeLa cells [5] is “DNA fragmentation”; with HeLa cells [5] (listed as D5), “caused genomic DNA fragmentation”. Further, the “effect on assembly of purified tubulin, relative potency (in words)” value with Goat brain tubulin is “maximum potency”. In addition, the “effect on interphase microtubules of HeLa cells (in words)” value in [6] (7, 15, 30 nM, 24 h) was “perturbed microtubule network”. Also, in data set [6] (7, 15, 30 nM, 24 h), the “effect on mitotic microtubules of HeLa cells (in words)” value is given as “perturbed microtubule network”. In data set [6] (at 15 to 30 nM), the “depolymerization of interphase and mitotic microtubules (in words)” value was “showed depolymerization of interphase and mitotic microtubules”.

Take `CC[C@H](C)C([C@H](O)CC(=O)NCC1O[C@@H](C(=O)NCc2ccccc2)[C@@H](OC)[C@@H]1OC)N(C)C(=O)[C@@H](NC(=O)[C@@H](NC)C(C)C)C(C)C` (stereo partly drawn) [Compound 7, Dov(R^1═H)-Val-(3R,4S,5S)-Dil(X═C(OH)H,Y═CH2)-SAA(2R)-Doe(R^2═H, n=0)]: in data set [2], the IC50 came out at 16 nM.

Turning to `CC[C@H](C)C(/C=C/C(=O)NCC1O[C@@H](C(=O)N[C@@H](Cc2ccccc2)C2=NCCS2)[C@@H](OC)[C@@H]1OC)N(C)C(=O)[C@@H](NC(=O)[C@H](C(C)C)N(C)C)C(C)C` (stereo partly drawn) [Compound 2, Dov(R^1=Me)-Val-(4S,5S)-Dil(X,Y═CH)-SAA(2R)-Doe(R^2=2-(4,5-dihydrothiazolyl), n=1)], in data set [2], the IC50 is 8.8 nM.
